The term MIC denotes the lowest concentration found to suppress growth. Broadly, the IC50 is the concentration that gives 50% inhibition. Broadly, the inhibition is the percentage by which the read-out fell short of the control. A lower inhibition goes with little suppression.

For one assay, the system named is S. aureus (ATCC29213). Briefly: MIC by broth microdilution, S. aureus. It counts as cell-based, Staphylococcus aureus. The settings on record: Staphylococcus aureus. On the procedure: (§1) In this study, we have, therefore, altered our strategy and used minimal inhibitory concentration assays to identify and improve antibacterial agents. A total of 10 pyrrolopyrimidines with variation of the 4-amino group were assayed for their MIC in E. coli (MG1655) and S. aureus (ATCC29213) using the broth microdilution method. Subsequently, the compounds were also counter-screened for their inhibition of human EGFR.
(§2) The MIC of compound 1–21 towards Escherichia coli (MG1655) and Staphylococcus aureus (ATCC29213) was determined following the standards that were recommended by the Clinical and Laboratory Standards Institute (CLSI) for the broth microdilution method. Briefly, the bacterial suspensions were adjusted to 0.5 McFarland standard (~1 × 10^8 colony forming units (CFU)/mL) and diluted 1:200 in Cation-Adjusted Mueller-Hinton Broth (CAMHB, […], […]). The suspension was subsequently added to polypropylene microtiter plates (100 µL/well, ~5 × 10^4 CFU/well) that were already prepared with different concentrations of the various halogenated fused pyrimidines (11 µL/well, two-fold serial dilutions). The plates were incubated at 37 °C overnight before inspection for visible growth and determination of the MIC values.

The subject of another assay is S. aureus. Briefly: MIC towards S. aureus in combination with the peptide betatide. It counts as cell-based, Staphylococcus aureus. The settings on record: betatide 8 mg/L (half its MIC). On the procedure:
The concentration of betatide was 8 mg/L, which corresponds to half the MIC concentration.
as §2

Assay [1] concerns the target T1, E. coli TMPK (Escherichia coli, UniProt P0A720).
T1 construct: purchased ProFoldin TMK100KE
On the set-up: method as in doi:10.1002/slct.202103796. Particulars: previous study; read-out: IC50 against E. coli TMPK; cited from earlier work.

The target of a further assay is T2, human EGFR (Homo sapiens, UniProt P00533).
T2 construct: purchased Invitrogen (ThermoFisher), assay service
Briefly: Enzymatic EGFR (ErbB1) inhibition, Z'-LYTE. Particulars: for inhibition at 0.1 µM: 100 nM compound, ATP equal to KM; for IC50: average of 2 titration curves, ATP equal to apparent KM, read-out: IC50 towards EGFR. The class given is biochemical. On the procedure: The compounds were supplied in a 10 mM DMSO solution, and enzymatic EGFR (ErbB1) inhibition potency was determined by Invitrogen (ThermoFisher) using their Z’-LYTE® assay technology. The compounds were tested for their inhibitory activity at 100 nM in duplicates. The IC50 values that were reported for 1 and 5 are based on the average of 2 titration curves (20 data points), and were calculated from activity data with a four-parameter logistic model using SigmaPlot (Windows Version 12.0 from Systat Software, Inc., Palo Alto, CA, USA). Unless stated otherwise, the ATP concentration that was used was equal to apparent KM.

In another assay the test system is E. coli (MG1655). Briefly: MIC by broth microdilution, E. coli. Particulars: for MIC: Escherichia coli, E. coli MG1655, broth microdilution. The class given is cell-based, Escherichia coli. How it is done:
as §1, §2
(In broth dilution the organism is exposed to a series of concentrations in liquid medium.)

A further assay has as its target T3, human TMPK (Homo sapiens, UniProt P23919).
T3 construct: purchased ProFoldin HTMK500KE
T3 sequence (P23919 1-212): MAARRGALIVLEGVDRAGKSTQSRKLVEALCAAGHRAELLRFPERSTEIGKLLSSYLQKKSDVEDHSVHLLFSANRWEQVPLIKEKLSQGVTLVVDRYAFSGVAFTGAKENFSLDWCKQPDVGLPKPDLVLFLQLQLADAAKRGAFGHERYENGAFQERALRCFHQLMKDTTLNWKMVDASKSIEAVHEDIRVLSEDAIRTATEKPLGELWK
Briefly: Human TMPK assay (ProFoldin kit). The class given is biochemical. The settings on record: enzymatic; read-out: IC50 towards human TMPK. On the procedure:
(§3) The inhibition of EcTMPK was determined by Profoldin using the E. coli Thymidylate Kinase Assay Kit Plus (ProFoldin, Catalog No. TMK100KE, Hudson, MA, USA), where dTMP was phosphorylated by ATP that was catalyzed by TMPK. The assay was run in 96-well black plates at 36 °C. The formation of ADP was measured by adding a fluorescent dye and measuring the fluorescence emission at 535 nm after excitation at 485 nm. The readout was corrected for emission from the assay cocktail and DMSO. An ADP control assay was also performed to correct for possible interference with ADP detection. Single-point inhibitions were measured at 8.3 µM inhibitor concentrations. The IC50-values were determined from a similar assay, where 2-fold dilution series from […] were used. The assay towards the human enzyme was run similarly but using the Human Thymidylate Kinase Assay Kit Plus-500 (Catalog Number: HTMK500KE, ProFoldin, Hudson, MA, USA).

For assay [2], the system named is panel of 50 human kinases (EGFR most inhibited). Briefly: Kinase panel, Z'-LYTE, 50 human kinases. It counts as biochemical. On the procedure:
As the starting point of this study was the EGFR inhibitor PKI-166 (1), there is an obvious risk of kinase off-target effects for the bromo derivative 5. Therefore, we profiled 5 towards a panel of 50 human kinases. […] Based on our previous experience, it is assumed that the EGFR inhibiting activity of 5 is too low to cause in vivo effects.
The compounds were supplied in a 10 mM DMSO solution, and enzymatic kinase inhibition potency was determined by ThermoFisher (Invitrogen, Waltham, MA, USA) using their Z’-LYTE® assay technology, at 500 nM in duplicates. The ATP concentration that was used was equal to Km, except when this service was not provided, and other concentrations had to be used.

Assay [3] has as its target T1, E. coli TMPK. Briefly: E. coli TMPK assay (ProFoldin kit). The class given is biochemical. Particulars: enzymatic; read-out: IC50 towards E. coli TMPK. How it is done:
as §3

Where [4] appears, read: ATCC29213, S. aureus, single agent (Table 3), read-out: Single Comp. MIC.
Setting [5] is: S. aureus ATCC29213, broth microdilution, read-out: S. aureus MIC.

The structures appear in SMILES notation. Values after ≈ are worked out from the molar mass of the structure shown. Like-named read-outs stand apart in the source and are kept apart here. A value given as a limit tells only on which side of the number the result lay.

T2 sequence (P00533 25-1210): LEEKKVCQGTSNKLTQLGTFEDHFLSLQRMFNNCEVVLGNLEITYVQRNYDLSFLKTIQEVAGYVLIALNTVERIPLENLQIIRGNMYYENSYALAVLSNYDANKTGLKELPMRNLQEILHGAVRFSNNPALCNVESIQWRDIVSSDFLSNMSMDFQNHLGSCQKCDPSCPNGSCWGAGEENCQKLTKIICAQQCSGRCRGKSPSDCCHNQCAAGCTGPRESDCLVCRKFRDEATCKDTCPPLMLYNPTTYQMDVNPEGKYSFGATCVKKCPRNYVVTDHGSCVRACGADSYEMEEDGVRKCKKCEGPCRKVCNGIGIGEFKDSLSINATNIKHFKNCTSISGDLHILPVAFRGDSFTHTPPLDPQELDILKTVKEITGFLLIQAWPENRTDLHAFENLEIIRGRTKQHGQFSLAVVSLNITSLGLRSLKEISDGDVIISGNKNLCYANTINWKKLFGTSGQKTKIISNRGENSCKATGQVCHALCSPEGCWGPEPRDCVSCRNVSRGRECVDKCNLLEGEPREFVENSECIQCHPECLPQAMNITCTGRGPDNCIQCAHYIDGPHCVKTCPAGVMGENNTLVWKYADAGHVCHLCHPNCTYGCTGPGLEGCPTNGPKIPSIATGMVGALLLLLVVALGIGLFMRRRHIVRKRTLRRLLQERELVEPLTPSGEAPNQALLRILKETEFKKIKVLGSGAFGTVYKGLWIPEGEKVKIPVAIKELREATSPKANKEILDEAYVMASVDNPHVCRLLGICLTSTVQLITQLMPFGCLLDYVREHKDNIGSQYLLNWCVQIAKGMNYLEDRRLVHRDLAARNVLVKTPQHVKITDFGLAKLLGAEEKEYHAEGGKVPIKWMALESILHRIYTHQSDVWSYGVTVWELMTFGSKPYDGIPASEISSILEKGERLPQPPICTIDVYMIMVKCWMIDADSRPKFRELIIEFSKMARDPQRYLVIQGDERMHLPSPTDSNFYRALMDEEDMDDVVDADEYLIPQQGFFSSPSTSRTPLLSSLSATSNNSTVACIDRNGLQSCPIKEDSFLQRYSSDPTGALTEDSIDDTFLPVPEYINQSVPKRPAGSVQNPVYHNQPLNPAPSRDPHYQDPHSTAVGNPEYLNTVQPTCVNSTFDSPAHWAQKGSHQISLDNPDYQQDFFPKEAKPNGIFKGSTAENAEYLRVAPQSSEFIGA
T1 sequence (P0A720 whole entry): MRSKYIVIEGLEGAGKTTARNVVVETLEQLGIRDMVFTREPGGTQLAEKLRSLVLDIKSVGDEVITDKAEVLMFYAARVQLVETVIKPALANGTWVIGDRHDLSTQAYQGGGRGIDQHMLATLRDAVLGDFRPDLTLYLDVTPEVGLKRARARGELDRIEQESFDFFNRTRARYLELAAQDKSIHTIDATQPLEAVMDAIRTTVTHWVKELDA

Consider `C[C@@H](Nc1ncnc2[nH]c(-c3ccc(O)cc3)cc12)c1ccccc1` [Compound 1, (R)-4-(4-((1-Phenylethyl)amino)-7H-pyrrolo[2,3-d]pyrimidin-6-yl)phenol, reference compound], for which the figures for the minimal inhibitory concentration (MIC) in the assay on S. aureus (ATCC29213) (setting [4]), in the assay on S. aureus (ATCC29213) (setting [5]) and in the assay with E. coli (MG1655) were 64 µg/mL (≈ 194 µM), 64 µg/mL (≈ 194 µM) and over 128 µg/mL, respectively. Besides, in the assay with S. aureus, the “Combination with Betatide MIC” value turned out to be 8 µg/mL. For the same molecule, the IC50 was 15 µM on E. coli TMPK [1] and under 0.001 µM on human EGFR. For the same molecule, the inhibition at 0.1 µM on human EGFR turned out to be 100%. In addition, in the assay on E. coli (MG1655) (culture, MIC assay), the “Activity towards E. coli in culture (in words)” value was “did not possess any activity”.
With `C[C@@H](Nc1ncnc2[nH]c(-c3ccc(O)cc3)cc12)c1ccc(Br)cc1` [Compound 5, (R)-4-(4-((1-(4-Bromophenyl)ethyl)amino)-7H-pyrrolo[2,3-d]pyrimidin-6-yl)phenol], the MIC with S. aureus (ATCC29213) (setting [4]) is 8 µg/mL (≈ 19.5 µM); in the assay with S. aureus (ATCC29213) (setting [5]), 8 µg/mL (≈ 19.5 µM); with E. coli (MG1655), over 128 µg/mL. Also, the “Combination with Betatide MIC” value in the assay on S. aureus is 1 µg/mL. Also, the IC50 is over 100 µM at human TMPK, 0.025 µM at human EGFR and 5 µM on E. coli TMPK [3]. The molecule also registered an inhibition at 0.1 µM at human EGFR of 81%. Further, the “EGFR inhibition in kinase panel” value in assay [2] (500 nM test concentration) stood at 91%. Also, the “Inhibition of all the other kinases of the panel” value in assay [2] (500 nM, 50 human kinases, other than EGFR) was “very low inhibition”.
